Test results taken from patent US20260028354A1, “TETRAHYDRONAPHTHALENE DERIVATIVES AS ESTROGEN RECEPTOR DEGRADERS” (REGENT OF THE UNIVERSITY OF MICHIGAN, priority 2022, published 2026).
Like-named read-outs stand apart in the source and are kept apart here.

Assays:
[1] = target: ER (Homo sapiens (Human), UniProt P03372); assay: In-cell western blot analysis of ER for "B" compounds; type: cell-based; details: 16 hours, read-out: ICW DC50
In short: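 ER levels given as a percentage of untreated/DMSO-treated wells (100%). Detection used primary antibodies for 2 h at room temperature followed by 680 and 800 nm fluorescent secondaries at 1:1000 for 1 h, read by LI-COR imaging.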

[2] = Cell growth assay (WST-8) for "B" compounds; type: cell-based; details: T47D, read-out: Cell growth Inhibition in T47D cell line IC50
In short: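 Four-day compound exposure of cells plated at 1500/well the day before. Read-out is WST-8 (10%, 2.5 h, 37 °C) absorbance at 450 nm, normalized to vehicle control over three independent repeats.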

Sequence of ER (P03372 whole entry): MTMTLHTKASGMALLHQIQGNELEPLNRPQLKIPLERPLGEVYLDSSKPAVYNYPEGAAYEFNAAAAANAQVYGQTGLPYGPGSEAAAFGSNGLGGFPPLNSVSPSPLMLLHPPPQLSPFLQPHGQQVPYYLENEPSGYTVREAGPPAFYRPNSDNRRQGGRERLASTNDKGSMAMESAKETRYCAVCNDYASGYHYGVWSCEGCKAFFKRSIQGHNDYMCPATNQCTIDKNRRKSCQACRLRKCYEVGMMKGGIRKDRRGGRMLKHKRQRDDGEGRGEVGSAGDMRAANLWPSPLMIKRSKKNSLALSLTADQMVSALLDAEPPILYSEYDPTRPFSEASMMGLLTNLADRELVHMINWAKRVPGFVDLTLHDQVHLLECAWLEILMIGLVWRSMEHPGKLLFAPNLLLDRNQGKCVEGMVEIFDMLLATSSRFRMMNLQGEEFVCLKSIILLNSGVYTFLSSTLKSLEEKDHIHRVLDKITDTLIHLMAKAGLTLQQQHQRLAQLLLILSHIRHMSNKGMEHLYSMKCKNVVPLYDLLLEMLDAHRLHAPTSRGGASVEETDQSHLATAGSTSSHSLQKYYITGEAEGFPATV

DC50 [1] [µM]	Compound	IC50 [2] [µM]	IC50 ([2]; T47D cell line) [µM]
< 0.01	O=C1CC[C@H](N2Cc3cc4c(cc3C2=O)OC[C@@H]2CN(C[C@H]3COC5(CCN(c6ccc([C@@H]7c8ccc(O)cc8CC[C@@H]7c7ccccc7)cc6)CC5)C3)CCN42)C(=O)N1 [Compound B398, (S)-3-((S)-3-(((S)-8-(4-((1R,2S)-6-hydroxy-2-phenyl-1,2,3,4-tetrahydronaphthalen-1-yl)phenyl)-1-oxa-8-azaspiro[4.5]decan-3-yl)methyl)-8-oxo-1,2,3,4,4a,5,8,10-octahydro-9H-pyrazino[1′,2′:4,5][1,4]oxazino[2,3-f]isoindol-9-yl)piperidine-2,6-dione]	–	< 0.001
0.01 to 0.1	O=C1CCC(N2Cc3c(ccc4c3OC[C@H]3CN(CC5COC6(CN(c7ccc([C@@H]8c9ccc(O)cc9CC[C@@H]8c8ccccc8)cc7)C6)OC5)CCN43)C2=O)C(=O)N1 (stereo partly drawn) [Compound B327, 3-((R)-7-((2-(4-((1R,2S)-6-hydroxy-2-phenyl-1,2,3,4-tetrahydronaphthalen-1-yl)phenyl)-5,9-dioxa-2-azaspiro[3.5]nonan-7-yl)methyl)-1-oxo-1,3,5,5a,6,7,8,9-octahydro-2H-pyrazino[1′,2′:4,5][1,4]oxazino[2,3-e]isoindol-2-yl)piperidine-2,6-dione]	–	< 0.001
< 0.01	O=C1CCC(N2Cc3cc4c(cc3C2=O)OC[C@@H]2CN(C(=O)[C@H]3CC[C@H](CN5CCN(c6ccc([C@@H]7c8ccc(O)cc8CC[C@@H]7c7ccccc7)cc6)CC5)CC3)CCN42)C(=O)N1 (stereo partly drawn) [Compound B141, 3-((S)-3-((1R,4S)-4-((4-(4-((1R,2S)-6-hydroxy-2-phenyl-1,2,3,4-tetrahydronaphthalen-1-yl)phenyl)piperazin-1-yl)methyl)cyclohexane-1-carbonyl)-8-oxo-1,2,3,4,4a,5,8,10-octahydro-9H-pyrazino[1′,2′:4,5][1,4]oxazino[2,3-f]isoindol-9-yl)piperidine-2,6-dione]	–	< 0.001
> 0.1	CCN(CC1CCN(c2ccc([C@@H]3c4ccc(O)cc4CC[C@@H]3c3ccccc3)cc2)CC1)[C@H]1C[C@H]2COc3cc4c(cc3N2C1)CN(C1CCC(=O)NC1=O)C4=O (stereo partly drawn) [Compound B311, 3-((2S,3aS)-2-(ethyl((1-(4-((1R,2S)-6-hydroxy-2-phenyl-1,2,3,4-tetrahydronaphthalen-1-yl)phenyl)piperidin-4-yl)methyl)amino)-7-oxo-2,3,3a,4,7,9-hexahydro-1H,8H-pyrrolo[1′,2′:4,5][1,4]oxazino[2,3-f]isoindol-8-yl)piperidine-2,6-dione]	–	< 0.001
> 0.1	O=C1CC[C@H](NC(=O)c2ccc3c(c2)OC[C@@H]2CN(CC4CCN(c5ccc([C@@H]6c7ccc(O)cc7CC[C@@H]6c6ccccc6)cc5)CC4)CCN32)C(=O)N1 [Compound B257, (S)-N-((S)-2,6-dioxopiperidin-3-yl)-3-((1-(4-((1R,2S)-6-hydroxy-2-phenyl-1,2,3,4-tetrahydronaphthalen-1-yl)phenyl)piperidin-4-yl)methyl)-1,2,3,4,4a,5-hexahydrobenzo[b]pyrazino[1,2-d][1,4]oxazine-8-carboxamide]	–	0.001 to 0.01
> 0.1	CN(C(=O)c1ccc2c(n1)OC[C@H]1CN(CC3COC4(CCN(c5ccc([C@@H]6c7ccc(O)cc7CC[C@@H]6c6ccccc6)cc5)CC4)C3)CCN21)C1CCC(=O)NC1=O (stereo partly drawn) [Compound B237, (4aR)-N-(2,6-dioxopiperidin-3-yl)-3-((8-(4-((1R,2S)-6-hydroxy-2-phenyl-1,2,3,4-tetrahydronaphthalen-1-yl)phenyl)-1-oxa-8-azaspiro[4.5]decan-3-yl)methyl)-N-methyl-1,2,3,4,4a,5-hexahydropyrazino[1,2-d]pyrido[2,3-b][1,4]oxazine-8-carboxamide]	–	0.001 to 0.01
0.01 to 0.1	O=C1CCC(N2Cc3c(ccc4c3OC[C@H]3CN(C(=O)CN5CC(Oc6ccc([C@@H]7c8ccc(O)cc8CC[C@@H]7c7ccccc7)cc6)C5)CCN43)C2=O)C(=O)N1 (stereo partly drawn) [Compound B245, 3-((R)-7-(2-(3-(4-((1R,2S)-6-hydroxy-2-phenyl-1,2,3,4-tetrahydronaphthalen-1-yl)phenoxy)azetidin-1-yl)acetyl)-1-oxo-1,3,5,5a,6,7,8,9-octahydro-2H-pyrazino[1′,2′:4,5][1,4]oxazino[2,3-e]isoindol-2-yl)piperidine-2,6-dione]	–	< 0.001
< 0.01	O=C1CC[C@H](N2Cc3cc4c(cc3C2=O)OC[C@@H]2CN(CC3COC5(CCN(c6ccc([C@@H]7c8ccc(O)cc8CC[C@@H]7c7ccccc7)cc6)CC5)C3)CCN42)C(=O)N1 (stereo partly drawn) [Compound B227, (3S)-3-((4aS)-3-((8-(4-((1R,2S)-6-hydroxy-2-phenyl-1,2,3,4-tetrahydronaphthalen-1-yl)phenyl)-1-oxa-8-azaspiro[4.5]decan-3-yl)methyl)-8-oxo-1,2,3,4,4a,5,8,10-octahydro-9H-pyrazino[1′,2′: 4,5][1,4]oxazino[2,3-f]isoindol-9-yl)piperidine-2,6-dione]	–	< 0.001
0.01 to 0.1	O=C1CCC(N2Cc3cc4c(cc3C2=O)OC[C@@H]2CN(C(=O)CN3CCN(c5ccc([C@@H]6c7ccc(O)cc7CC[C@@H]6c6ccccc6)cc5)CC3)CCN42)C(=O)N1 (stereo partly drawn) [Compound B144, 3-((S)-3-(2-(4-(4-((1R,2S)-6-hydroxy-2-phenyl-1,2,3,4-tetrahydronaphthalen-1-yl)phenyl)piperazin-1-yl)acetyl)-8-oxo-1,2,3,4,4a,5,8,10-octahydro-9H-pyrazino[1′,2′:4,5][1,4]oxazino[2,3-f]isoindol-9-yl)piperidine-2,6-dione]	–	< 0.001
> 0.1	O=C1CC[C@H](NC(=O)c2ccc(N3CCN(CC4CCN(c5ccc([C@@H]6c7ccc(O)cc7CC[C@@H]6c6ccccc6)cc5)CC4)CC3)cc2F)C(=O)N1 [Compound B317, N-((S)-2,6-dioxopiperidin-3-yl)-2-fluoro-4-(4-((1-(4-((1R,2S)-6-hydroxy-2-phenyl-1,2,3,4-tetrahydronaphthalen-1-yl)phenyl)piperidin-4-yl)methyl)piperazin-1-yl)benzamide]	–	0.001 to 0.01
0.01 to 0.1	O=C1CCC(N2Cc3cc4c(cc3C2=O)OC[C@@H]2CN(CC3COC5(CCN(c6ccc([C@@H]7c8ccc(O)cc8CC[C@@H]7c7ccccc7)cc6)CC5)O3)CCN42)C(=O)N1 (stereo partly drawn) [Compound B239, 3-((4aS)-3-((8-(4-((1R,2S)-6-hydroxy-2-phenyl-1,2,3,4-tetrahydronaphthalen-1-yl)phenyl)-1,4-dioxa-8-azaspiro[4.5]decan-2-yl)methyl)-8-oxo-1,2,3,4,4a,5,8,10-octahydro-9H-pyrazino[1′,2′:4,5][1,4]oxazino[2,3-f]isoindol-9-yl)piperidine-2,6-dione]	–	0.001 to 0.01

Compound	DC50 [1] [µM]	IC50 [2] [µM]	IC50 ([2]; T47D cell line) [µM]
O=C1CCC(N2Cc3c(ccc4c3OCC43CCN(CC(=O)N4CC5(CCN(c6ccc([C@@H]7c8ccc(O)cc8CC[C@@H]7c7ccccc7)cc6)C5)C4)CC3)C2=O)C(=O)N1 (stereo partly drawn) [Compound B212, 3-(1′-(2-(6-(4-((1R,2S)-6-hydroxy-2-phenyl-1,2,3,4-tetrahydronaphthalen-1-yl)phenyl)-2,6-diazaspiro[3.4]octan-2-yl)-2-oxoethyl)-6-oxo-6,8-dihydro-2H,7H-spiro[furo[2,3-e]isoindole-3,4′-piperidin]-7-yl)piperidine-2,6-dione]	< 0.01	< 0.001	–
O=C1CC[C@H](N2Cc3c(ccc4c3OCC43CCN(C[C@@H]4CCC5(CCN(c6ccc([C@@H]7c8ccc(O)cc8CC[C@@H]7c7ccccc7)cc6)CC5)OC4)CC3)C2=O)C(=O)N1 [Compound B400, (S)-3-(1′-(((S)-9-(4-((1R,2S)-6-hydroxy-2-phenyl-1,2,3,4-tetrahydronaphthalen-1-yl)phenyl)-1-oxa-9-azaspiro[5.5]undecan-3-yl)methyl)-6-oxo-6,8-dihydro-2H,7H-spiro[furo[2,3-e]isoindole-3,4′-piperidin]-7-yl)piperidine-2,6-dione]	< 0.01	< 0.001	–
O=C1CCC(N2Cc3c(ccc4c3OCCC43CCN(CC4CCN(c5ccc([C@@H]6c7ccc(O)cc7CC[C@@H]6c6ccccc6)cc5)CC4)CC3)C2=O)C(=O)N1 (stereo partly drawn) [Compound B165, 3-(1-((1-(4-((1R,2S)-6-hydroxy-2-phenyl-1,2,3,4-tetrahydronaphthalen-1-yl)phenyl)piperidin-4-yl)methyl)-7′-oxo-2′,3′,7′,9′-tetrahydro-8′H-spiro[piperidine-4,4′-pyrano[2,3-e]isoindol]-8′-yl)piperidine-2,6-dione]	> 0.1	< 0.001	–
O=C1CCC(N2Cc3c(ccc4c3OCC43CCN(CC4CCN(c5ccc([C@@H]6c7ccc(O)cc7CC[C@@H]6c6ccccc6)cc5)CC4)CC3)C2=O)C(=O)N1 (stereo partly drawn) [Compound B258, 3-(1′-((1-(4-((1R,2S)-6-hydroxy-2-phenyl-1,2,3,4-tetrahydronaphthalen-1-yl)phenyl)piperidin-4-yl)methyl)-6-oxo-6,8-dihydro-2H,7H-spiro[furo[2,3-e]isoindole-3,4′-piperidin]-7-yl)piperidine-2,6-dione]	0.01 to 0.1	< 0.001	–
O=C1CCC(N2Cc3c(ccc4c3OCC43CCN(CC4COC5(CCN(c6ccc([C@@H]7c8ccc(O)cc8CC[C@@H]7c7ccccc7)cc6)CC5)O4)CC3)C2=O)C(=O)N1 (stereo partly drawn) [Compound B350, 3-(1′-((8-(4-((1R,2S)-6-hydroxy-2-phenyl-1,2,3,4-tetrahydronaphthalen-1-yl)phenyl)-1,4-dioxa-8-azaspiro[4.5]decan-2-yl)methyl)-6-oxo-6,8-dihydro-2H,7H-spiro[furo[2,3-e]isoindole-3,4′-piperidin]-7-yl)piperidine-2,6-dione]	0.01 to 0.1	> 0.01	–
